Results from PubChem BioAssay (NCI).
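Grown in 96-well plates, cells were treated for 48 hours with each compound at five concentrations. Insufficient inhibition: endpoint recorded as highest concentration tested. GI50 is the concentration that inhibits growth by half. TGI denotes the concentration required for complete inhibition of growth.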

Key:
Assay in all cases: growth of human tumour cells (NCI), 48 h
NCI-H23 lung = test system: NCI-H23 lung
NCI-H460 lung = test system: NCI-H460 lung
NCI-H522 lung = test system: NCI-H522 lung
NCI/ADR-RES ovarian = test system: NCI/ADR-RES ovarian
OVCAR-3 ovarian = test system: OVCAR-3 ovarian
OVCAR-4 ovarian = test system: OVCAR-4 ovarian
OVCAR-5 ovarian = test system: OVCAR-5 ovarian
OVCAR-8 ovarian = test system: OVCAR-8 ovarian
PC-3 prostate = test system: PC-3 prostate
RPMI-8226 leukemia = test system: RPMI-8226 leukemia
RXF 393 renal = test system: RXF 393 renal
SF-268 CNS = test system: SF-268 CNS
SF-295 CNS = test system: SF-295 CNS
SF-539 CNS = test system: SF-539 CNS
SK-MEL-2 melanoma = test system: SK-MEL-2 melanoma
SK-MEL-28 melanoma = test system: SK-MEL-28 melanoma
SK-MEL-5 melanoma = test system: SK-MEL-5 melanoma
SK-OV-3 ovarian = test system: SK-OV-3 ovarian
SN12C renal = test system: SN12C renal
SNB-19 CNS = test system: SNB-19 CNS
SNB-75 CNS = test system: SNB-75 CNS
SR leukemia = test system: SR leukemia
SW-620 colon = test system: SW-620 colon
T-47D breast = test system: T-47D breast
TK-10 renal = test system: TK-10 renal
U251 CNS = test system: U251 CNS
UACC-257 melanoma = test system: UACC-257 melanoma
UACC-62 melanoma = test system: UACC-62 melanoma
UO-31 renal = test system: UO-31 renal

COc1cc(F)c(F)c(Nc2ccc(I)cc2F)c1NS(=O)(=O)C1(CC(O)CO)CC1 (stereo not drawn)
GI50 (NCI-H23 lung): 12.1 µM
TGI (NCI-H23 lung): 36.4 µM
GI50 (NCI-H460 lung): 13.9 µM
TGI (NCI-H460 lung): 33.2 µM
GI50 (NCI-H522 lung): 11.5 µM
TGI (NCI-H522 lung): 29.9 µM
GI50 (NCI/ADR-RES ovarian): 18.8 µM
TGI (NCI/ADR-RES ovarian): 57.9 µM
GI50 (OVCAR-3 ovarian): 14.6 µM
TGI (OVCAR-3 ovarian): 36.4 µM
GI50 (OVCAR-4 ovarian): 16.6 µM
TGI (OVCAR-4 ovarian): > 91.9 µM
GI50 (OVCAR-5 ovarian): 10.2 µM
TGI (OVCAR-5 ovarian): 30.1 µM
GI50 (OVCAR-8 ovarian): 18.7 µM
TGI (OVCAR-8 ovarian): 61 µM
GI50 (PC-3 prostate): 15.1 µM
TGI (PC-3 prostate): > 57.5 µM
GI50 (RPMI-8226 leukemia): 16 µM
TGI (RPMI-8226 leukemia): 54.6 µM
GI50 (RXF 393 renal): 5.78 µM
TGI (RXF 393 renal): 19.7 µM
GI50 (SF-268 CNS): 15.6 µM
TGI (SF-268 CNS): 55 µM
GI50 (SF-295 CNS): 15 µM
TGI (SF-295 CNS): 32.5 µM
GI50 (SF-539 CNS): 15.8 µM
TGI (SF-539 CNS): 33.8 µM
GI50 (SK-MEL-2 melanoma): 4.1 µM
TGI (SK-MEL-2 melanoma): 18.8 µM
GI50 (SK-MEL-28 melanoma): 3.02 µM
TGI (SK-MEL-28 melanoma): 13.7 µM
GI50 (SK-MEL-5 melanoma): 8.12 µM
TGI (SK-MEL-5 melanoma): 21.9 µM
GI50 (SK-OV-3 ovarian): 25.8 µM
TGI (SK-OV-3 ovarian): > 79.6 µM
GI50 (SN12C renal): 12.5 µM
TGI (SN12C renal): 38.6 µM
GI50 (SNB-19 CNS): 11 µM
TGI (SNB-19 CNS): 50.1 µM
GI50 (SNB-75 CNS): 6.29 µM
TGI (SNB-75 CNS): 49.2 µM
GI50 (SR leukemia): 15.7 µM
TGI (SR leukemia): > 69.4 µM
GI50 (SW-620 colon): 13.6 µM
TGI (SW-620 colon): > 59.5 µM
GI50 (T-47D breast): 15.7 µM
TGI (T-47D breast): > 75.5 µM
GI50 (TK-10 renal): 14.9 µM
TGI (TK-10 renal): 72.1 µM
GI50 (U251 CNS): 15.2 µM
TGI (U251 CNS): 39.9 µM
GI50 (UACC-257 melanoma): 3.05 µM
TGI (UACC-257 melanoma): 19.5 µM
GI50 (UACC-62 melanoma): 1960 nM
TGI (UACC-62 melanoma): 9.81 µM
GI50 (UO-31 renal): 10.4 µM
TGI (UO-31 renal): 40.2 µM
